Data published in patent US12516062B2, “Agricultural or horticultural insecticide or animal ectoparasite or endoparasite control agent each comprising an imidazopyridazine compound having a substituted cyclopropane-oxadiazole group or a salt thereof as active ingredient, and method for using the insecticide or the control agent” (NIHON NOHYAKU CO., LTD., priority 2019, dated 2026).

Legend:
Assay type in all cases: in vivo
Laodelphax striatellus = experiment: whole plant or invertebrate; conditions: 192 h, rice seedlings dipped 30 seconds, 3rd-instar larvae, 8 days after inoculation, read-out: insecticidal efficacy (corrected mortality rate), activity level
Plutella xylostella = experiment: whole plant or invertebrate; conditions: in Brassica rapa, 144 h, seedlings with laid eggs dipped about 30 seconds, 25° C., 6 days after dip treatment, read-out: insecticidal efficacy (corrected mortality rate), activity level
Haemonchus contortus = experiment: Larval motility assay on Haemonchus contortus; conditions: 96 h, L1 stage larvae, 4 days, relative to DMSO only, read-out: percent motility inhibition
Method: Larval Motility Assay on Haemonchus contortus
DMSO diluted solutions of various compounds of the present invention were added at the final concentration of 50 ppm to the wells of a 96-well plate containing a predetermined conditioned medium. Twenty L1 stage larvae of H. contortus were introduced into each well of the 96-well plate. The plate was allowed to stand for 4 days, and then larval motility was examined. The percent motility inhibition in the wells of each treatment was calculated relative to the wells of treatment with DMSO only.

Dirofilaria immitis = experiment: Larval motility assay on Dirofilaria immitis; conditions: 72 h, read-out: percent motility inhibition
Method: Larval Motility Assay on Dirofilaria immitis
Five hundred L1 stage larvae of D. immitis were diluted in a predetermined conditioned medium and introduced into each well of a 96-well plate. DMSO diluted solutions of various compounds of the present invention were added at the final concentration of 50 ppm to the wells of the 96-well plate. The plate was allowed to stand for 3 days, and then larval motility was examined. The percent motility inhibition in the wells of each treatment was calculated relative to the wells of treatment with DMSO only.

Rhipicephalus sanguineus = experiment: Assay for transdermal parasiticidal activity against nymphs of Rhipicephalus sanguineus; conditions: 48 h, read-out: mortality rate
Text: Assay for Transdermal Parasiticidal Activity Against Nymphs of Rhipicephalus sanguineus
DMSO diluted solutions of various compounds of the present invention were individually diluted to the final concentration of 100 ppm with an acetone/triton mixture and applied to the inside of vented sample bottles. After overnight drying, ten nymphs of R. sanguineus were introduced into each bottle, and the mortality rate was examined two days later. Aberrant adults were regarded as the dead.

Structure (SMILES) | mortality at 500 ppm (Laodelphax striatellus) | mortality at 500 ppm (Plutella xylostella) | inhibition at 50 ppm (Haemonchus contortus) | inhibition at 50 ppm (Dirofilaria immitis) | mortality at 100 ppm (Rhipicephalus sanguineus)
CCS(=O)(=O)c1cc(-c2noc(C3(c4ccccc4)CC3)n2)cnc1-c1nc2cc(C(F)(F)C(F)(F)F)nnc2n1C [Compound 1-3] | 100% | 100% | ≥ 50% | ≥ 50% | ≥ 50%
CCS(=O)(=O)c1cc(-c2noc(C3(C)CC3)n2)cnc1-c1nc2cc(C(F)(F)C(F)(F)F)nnc2n1C [Compound 1-4] | 100% | 100% | ≥ 50% | ≥ 50% | –
CCS(=O)(=O)c1cc(-c2noc(C3(C(F)(F)F)CC3)n2)cnc1-c1nc2cc(C(F)(F)C(F)(F)F)nnc2n1C [Compound 1-2, 3-(5-(ethylsulfonyl)-6-(3-methyl-6-pentafluoroethyl-3[ ]-imidazo[4,5-c]pyridazin-2-yl)pyridin-3-yl)-5-(1-trifluoromethylcyclopropyl)-1,2,4-oxadiazole] | 100% | 100% | ≥ 50% | ≥ 50% | ≥ 50%
CCS(=O)(=O)c1cc(-c2noc(C3CC3C)n2)cnc1-c1nc2cc(C(F)(F)C(F)(F)F)nnc2n1C (stereo not drawn) [Compound 1-1] | 100% | 100% | ≥ 50% | ≥ 50% | –
